Measurements published in patent US8642259B2, “Method for identifying substances capable of modulating the activity of a target molecule” (Sanofi-Aventis Deutschland GmbH, priority 2002, dated 2014).

What was measured:
human GPCR EDG1 = human GPCR EDG1 (Homo sapiens, UniProt P21453); assay: Growth readout (FUS1-HIS3, turbidity at 630 nm), yeast strain YLJ21 expressing EDG1; format: cell-based; conditions: 2 mM 3-AT; 23 h at 30° C.; FIG. 3B left-hand graph
Description: (§1) The human GPCRs cloned into vector p426GPD are transformed into the appropriate yeast strain and incubated on SC selection plates without uracil and with 2% glucose as carbon source (SC/Gluc-Ura) at 30° C. for 3 days. The single cell colonies thus obtained are then utilized in order to inoculate 2 ml overnight cultures in SC/Gluc-Ura. The next day, the cells are diluted 1:100 in SC/Gluc-Ura-His pH 6.8. In the case of yeast strains using the FUS1 promoter for reporter gene expression, 2-10 mM 3-aminotriazole (3-AT, Sigma) are additionally added to said medium. In each case 90 μl of the diluted cell suspension are pipetted into a well of a 96-well microtiter plate, which already contains 10 μl of the ligand to be studied. The plates are incubated with or without shaking at 30° C. for 5-24 h. […] All measurements are averages from triplicate determinations. […] The transformed yeasts were then cultivated in 2 ml of SC/Gluc-Ura at 30° C. overnight. The next day, the cultures were diluted 1:100 in SC/Gluc-Ura-His pH 6.8 medium without (FIG. 3A) or with 2 mM 3-AT (FIG. 3B). […] The turbidity resulting from growth of the yeast cells was measured at 630 nm in the photometer (FIGS. 3A and B, in each case left-hand graph).

human GPCR EDG5 = target: T1, human GPCR EDG5 (Homo sapiens, UniProt O95136); assay: Growth readout (FUS1-HIS3, turbidity at 630 nm), yeast strain YLJ21 expressing EDG5; format: cell-based; conditions: 2 mM 3-AT; 23 h at 30° C.; FIG. 3B left-hand graph
T1 construct: expressed in transfected cells; host or cells: Saccharomyces cerevisiae strain YLJ21 (endogenous Gpa1), episomal vector p426GPD
Description: as §1

[1] = system: human M1 muscarinic receptor, somatostatin receptor 2 and EDG5
Description: The human GPCRs cloned into vector p426GPD are transformed into the appropriate yeast strain and incubated on SC selection plates without uracil and with 2% glucose as carbon source (SC/Gluc-Ura) at 30° C. for 3 days. The single cell colonies thus obtained are then utilized in order to inoculate 2 ml overnight cultures in SC/Gluc-Ura. The next day, the cells are diluted 1:100 in SC/Gluc-Ura-His pH 6.8. In the case of yeast strains using the FUS1 promoter for reporter gene expression, 2-10 mM 3-aminotriazole (3-AT, Sigma) are additionally added to said medium. In each case 90 μl of the diluted cell suspension are pipetted into a well of a 96-well microtiter plate, which already contains 10 μl of the ligand to be studied. The plates are incubated with or without shaking at 30° C. for 5-24 h. This is followed by adding to each well 50 μl of assay mix. The assay mix consists of 150 μg/ml digitonin (Sigma), 300 μg/ml chlorophenol red β-D-galactopyranoside (CPRG, Roche), 300 mM sodium phosphate buffer pH 6.7. After incubation with or without shaking at 30° C. for 2 h, β-galactosidase activity is measured as absorption at 574 nm in a spectrophotometer (Spectramax Plus, Molecular Devices). The data are analyzed and dose-response curves are drawn using the Graphpad Prism 3.0 computer program. All measurements are averages from triplicate determinations. […]

human GPCR EDG1, sequence (P21453 whole entry): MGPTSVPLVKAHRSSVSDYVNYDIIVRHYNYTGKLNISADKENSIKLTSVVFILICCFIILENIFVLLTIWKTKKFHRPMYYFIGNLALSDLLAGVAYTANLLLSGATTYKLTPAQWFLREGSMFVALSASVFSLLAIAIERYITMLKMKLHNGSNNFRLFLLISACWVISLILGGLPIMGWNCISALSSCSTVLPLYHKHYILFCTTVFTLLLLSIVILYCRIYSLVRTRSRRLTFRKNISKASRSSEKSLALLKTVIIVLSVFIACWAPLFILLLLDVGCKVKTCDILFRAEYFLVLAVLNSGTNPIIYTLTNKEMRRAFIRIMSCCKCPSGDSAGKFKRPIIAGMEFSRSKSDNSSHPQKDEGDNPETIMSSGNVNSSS
T1 sequence (O95136 whole entry): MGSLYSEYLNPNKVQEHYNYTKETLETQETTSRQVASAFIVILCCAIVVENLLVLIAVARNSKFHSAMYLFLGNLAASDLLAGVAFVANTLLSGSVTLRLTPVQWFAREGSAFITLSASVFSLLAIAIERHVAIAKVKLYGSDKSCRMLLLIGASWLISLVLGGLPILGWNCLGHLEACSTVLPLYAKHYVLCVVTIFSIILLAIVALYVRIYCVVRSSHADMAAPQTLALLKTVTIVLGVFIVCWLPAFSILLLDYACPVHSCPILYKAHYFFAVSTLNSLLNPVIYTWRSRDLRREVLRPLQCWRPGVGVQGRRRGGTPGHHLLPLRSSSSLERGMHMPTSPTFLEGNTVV

Molecule | dose dependence of the measured signal (turbidity at 630 nm) (human GPCR EDG1) | dose dependence of the measured signal (turbidity at 630 nm) (human GPCR EDG5) | detection of the agonist in the receptor mixture [1]
CCCCCCCCCCCCC/C=C/[C@@H](O)[C@@H](N)COP(=O)(O)O [sphingosine 1-phosphate] | level of the measured signal is dependent on the amount of sphingosine 1-phosphate | level of the measured signal is dependent on the amount of sphingosine 1-phosphate | can also be detected in the mixture
somatostatin-14 |  |  | can also be detected in the mixture
